Assay results from US4443436A, “C-20-Modified macrolide derivatives of the macrolide antibiotics tylosin, desmycosin, macrocin, and lactenocin” (Eli Lilly and Company, priority 1982, dated 1984).
In brackets after ≈: the same amount, converted by molar mass. Where two headings read alike, the source gives them in different places.

Tests used:
[1] = test system: Streptococcus Group D X66; assay: MIC, standard agar-dilution assay, Streptococcus Group D X66; type: cell-based; conditions: Streptococcus Group D X66; agar dilution; read-out: MIC
[2] = test system: Staphylococcus epidermidis EPI1; assay: MIC, standard agar-dilution assay, Staphylococcus epidermidis EPI1; type: cell-based
[3] = test system: Staphylococcus aureus X400; assay: MIC, standard agar-dilution assay, Staphylococcus aureus X400; type: cell-based
Mycoplasma hyorhinis = assay: MIC, broth-dilution microtiter test, Mycoplasma hyorhinis; type: cell-based
Excerpt: (§1) The MIC's in Table X were obtained using conventional broth-dilution microtiter tests.

[4] = test system: Pasteurella multocida 17E; assay: MIC, broth-dilution microtiter test, Pasteurella multocida 17E; type: cell-based; conditions: Pasteurella multocida 17E, bovine isolate, broth-dilution microtiter
Excerpt: as §1

[5] = test system: Staphylococcus aureus S13E; assay: MIC, standard agar-dilution assay, Staphylococcus aureus S13E; type: cell-based
Mycoplasma gallisepticum = assay: MIC, broth-dilution microtiter test, Mycoplasma gallisepticum; type: cell-based
Excerpt: as §1

[6] = test system: Streptococcus pneumoniae Park I; assay: microbe, parasite or virus in culture; type: cell-based; conditions: Streptococcus pneumoniae Park I, agar dilution
Staphylococcus aureus = assay: MIC, broth-dilution microtiter test, Staphylococcus aureus; type: cell-based
Excerpt: as §1

[7] = test system: Streptococcus pyogenes C203; assay: MIC, standard agar-dilution assay, Streptococcus pyogenes C203; type: cell-based
[8] = test system: Haemophilus influenzae Holt; assay: MIC, standard agar-dilution assay, Haemophilus influenzae Holt; type: cell-based; conditions: Haemophilus influenzae Holt, ampicillin-sensitive strain
[9] = test system: Staphylococcus epidermidis EPI2; assay: MIC, standard agar-dilution assay, Staphylococcus epidermidis EPI2; type: cell-based
Streptococcus bovis 80 = assay: MIC, broth-dilution microtiter test, Streptococcus bovis 80; type: cell-based
Excerpt: as §1

Pasteurella multocida = assay: Subcutaneous treatment of Pasteurella multocida-infected chicks; type: in vivo, one-day-old chicks; conditions: 30 mg/kg × 2, 1 and 4 hours post-challenge
Procedure: Many of the C-20 modified derivatives of this invention have also shown in vivo antibacterial activity against infections induced by gram-negative bacteria. Tables XII and XIII summarize the results of tests in which illustrative compounds were evaluated against Pasteurella infection in one-day-old chicks. The compounds were administered parenterally or orally after challenge of the chicks with Pasteurella multocida (0.1 ml of a 10^-4 dilution of a twenty-hour tryptose broth culture of an avian P. multocida given subcutaneously). In these tests, unless indicated otherwise, all non-medicated infected chicks died within 24 hours of Pasteurella challenge. In the tests summarized in Table XII the compounds were administered by subcutaneous injection at a dosage of 30 mg/kg, 1 and 4 hours post-challenge of the chicks with P. multocida. In the test summarized in Table XIII the compounds were administered by gavage at 1 and 5 hours post-challenge of the chicks with P. multocida.

[10] = test system: Staphylococcus aureus V41; assay: MIC, standard agar-dilution assay, Staphylococcus aureus V41; type: cell-based
[11] = test system: Haemophilus influenzae R252; assay: MIC, standard agar-dilution assay, Haemophilus influenzae R252; type: cell-based; conditions: Haemophilus influenzae R252, ampicillin-resistant strain
[12] = test system: Staphylococcus aureus X1.1; assay: MIC, standard agar-dilution assay, Staphylococcus aureus X1.1; type: cell-based
Streptococcus Group 9960 = assay: MIC, standard agar-dilution assay, Streptococcus Group 9960; type: cell-based
[13] = test system: Pasteurella hemolytica 22C; assay: MIC, broth-dilution microtiter test, Pasteurella hemolytica 22C; type: cell-based; conditions: Pasteurella hemolytica 22C, broth-dilution microtiter
Excerpt: as §1

[14] = test system: Streptococcus pyogenes C203; assay: In vivo protection of mice experimentally infected with S. pyogenes C203; conditions: for ED50: Streptococcus pyogenes
Procedure: The C-20 modified derivatives of this invention have shown in vivo antimicrobial activity against experimentally-induced infections in laboratory animals. When two doses of test compound were administered to mice experimentally infected with S. pyogenes C203, the activity observed was measured as an ED50 value [effective dose in mg/kg to protect 50% of the test animals: see Warren Wick, et al., J. Bacteriol. 81, 233-235 (1961)].

[15] = test system: Pasteurella multocida 60A; assay: MIC, broth-dilution microtiter test, Pasteurella multocida 60A; type: cell-based; conditions: Pasteurella multocida 60A, avian isolate, broth-dilution microtiter
Excerpt: as §1

Mycoplasma hyopneumoniae = assay: MIC, broth-dilution microtiter test, Mycoplasma hyopneumoniae; type: cell-based
Excerpt: as §1

Mycoplasma synoviae = assay: MIC, broth-dilution microtiter test, Mycoplasma synoviae; type: cell-based
Excerpt: as §1

[16] = Staphylococcus epidermidis, EPI2
[17] = C203, sc, mice, subcutaneous, doses given 1 and 4 hours post-infection, read-out: ED50, Subcutaneous

What does the source list for `CCC1OC(=O)CC(O)C(C)C(OC2OC(C)C(O)C(N(C)C)C2O)C(CCOC(=O)c2nn(CC)c3cc4c(cc3c2=O)OCO4)CC(C)C(=O)C=CC(C)=CC1COC1OC(C)C(O)C(OC)C1OC` (stereo not shown) [Compound 27, 20-DH-20-O-Cinoxacinyldesmycosin]?
MIC [1]: 4 µg/mL (≈ 3.93 µM); MIC ([2]; Staphylococcus epidermidis EPI1, agar dilution, read-out: MIC): 1 µg/mL (≈ 0.982 µM); MIC ([3]; Staphylococcus aureus, X400): 8 µg/mL (≈ 7.86 µM); MIC (Mycoplasma hyorhinis; Mycoplasma hyorhinis, broth-dilution microtiter, read-out: MIC): 6.25 µg/mL (≈ 6.14 µM); MIC ([4]; read-out: MIC): 25 µg/mL (≈ 24.6 µM); MIC ([5]; Staphylococcus aureus, S13E): 4 µg/mL (≈ 3.93 µM); MIC (Mycoplasma gallisepticum; Mycoplasmoides gallisepticum): 1.56 µg/mL (≈ 1.53 µM); MIC ([6]; read-out: MIC): 0.12 µg/mL (≈ 0.118 µM); MIC (Staphylococcus aureus; broth-dilution microtiter, read-out: MIC): 3.12 µg/mL (≈ 3.06 µM); MIC ([7]; Streptococcus pyogenes C203, agar dilution, read-out: MIC): 0.12 µg/mL (≈ 0.118 µM); MIC ([8]; read-out: MIC): 32 µg/mL (≈ 31.4 µM); MIC [9, 16]: 4 µg/mL (≈ 3.93 µM); MIC (Streptococcus bovis 80; Streptococcus equinus, Streptococcus bovis 80, broth-dilution microtiter, read-out: MIC): 0.78 µg/mL (≈ 0.766 µM); Number of Deaths/Number Treated (Pasteurella multocida): 6/10; MIC ([10]; Staphylococcus aureus, V41): 4 µg/mL (≈ 3.93 µM); MIC ([11]; read-out: MIC): 32 µg/mL (≈ 31.4 µM); MIC ([12]; Staphylococcus aureus X1.1, agar dilution, read-out: MIC): 2 µg/mL (≈ 1.96 µM); MIC (Streptococcus Group 9960; GROUP9960): 8 µg/mL (≈ 7.86 µM); MIC ([13]; read-out: MIC): 50 µg/mL (≈ 49.1 µM); ED50 ([14]; C203, po, read-out: ED50, Oral): > 100 mg/kg; ED50 [14, 17]: < 1.5 mg/kg; MIC ([15]; read-out: MIC): 25 µg/mL (≈ 24.6 µM)

`CCC1OC(=O)CC(O)C(C)C(OC2OC(C)C(O)C(N(C)C)C2O)C(CCOC)CC(C)C(=O)C=CC(C)=CC1COC1OC(C)C(O)C(OC)C1OC` (stereo not shown) [Compound 30, 20-DH-20-O-Methyldesmycosin] was tested. Which MIC [1] did it give?
Its MIC is 16 µg/mL (≈ 20.3 µM).

And the MIC ([2]; Staphylococcus epidermidis, EPI1)?
Its MIC is 0.5 µg/mL (≈ 0.635 µM).

What about the MIC ([3]; Staphylococcus aureus X400, methicillin-resistant strain, agar dilution, read-out: MIC) of the same molecule?
Its MIC is 1 µg/mL (≈ 1.27 µM).

And the MIC (Mycoplasma hyorhinis; Mycoplasma)?
Its MIC is 50 µg/mL (≈ 63.5 µM).

What about the MIC ([4]; read-out: MIC) of the same molecule?
The MIC was 25 µg/mL (≈ 31.7 µM).

What about the MIC (Mycoplasma hyopneumoniae; Mesomycoplasma hyopneumoniae) of the same molecule?
The MIC was 12.5 µg/mL (≈ 15.9 µM).

And the MIC ([5]; Staphylococcus aureus, S13E)?
The MIC was 0.5 µg/mL (≈ 0.635 µM).

And the MIC (Mycoplasma gallisepticum; Mycoplasmoides gallisepticum)?
The MIC was 0.39 µg/mL (≈ 0.495 µM).

And the MIC ([6]; read-out: MIC)?
The MIC was 4 µg/mL (≈ 5.08 µM).

What about the MIC (Staphylococcus aureus) of the same molecule?
The MIC was 0.78 µg/mL (≈ 0.99 µM).

What about the MIC ([7]; Streptococcus pyogenes, C203) of the same molecule?
The MIC was 0.5 µg/mL (≈ 0.635 µM).

And the MIC [9, 16]?
The MIC was 0.5 µg/mL (≈ 0.635 µM).

What about the MIC (Streptococcus bovis 80; Streptococcus equinus, 80) of the same molecule?
Its MIC is 12.5 µg/mL (≈ 15.9 µM).

And the “Number of Deaths/Number Treated” value (Pasteurella multocida)?
Its value is 10/10.

What about the MIC (Mycoplasma synoviae; Mycoplasmopsis synoviae) of the same molecule?
The MIC was 0.39 µg/mL (≈ 0.495 µM).

And the MIC ([10]; Staphylococcus aureus, V41)?
The MIC was 0.5 µg/mL (≈ 0.635 µM).

What about the MIC ([12]; Staphylococcus aureus, X1.1) of the same molecule?
The MIC was 0.5 µg/mL (≈ 0.635 µM).

And the MIC (Streptococcus Group 9960; GROUP9960, Streptococcus Group 9960, agar dilution, read-out: MIC)?
Its MIC is 16 µg/mL (≈ 20.3 µM).

And the MIC ([13]; read-out: MIC)?
The MIC was 25 µg/mL (≈ 31.7 µM).

And the ED50 [14, 17]?
The ED50 was > 6.3 mg/kg.

And the ED50 ([14]; C203, mice, oral, doses given 1 and 4 hours post-infection, read-out: ED50, Oral)?
Its ED50 is 25 mg/kg.

And the MIC ([15]; read-out: MIC)?
The MIC was 25 µg/mL (≈ 31.7 µM).

Which results are given for `CCC1OC(=O)CC(O)C(C)C(OC2OC(C)C(O)C(N(C)C)C2O)C(CCN2C(=O)c3ccccc3C2=O)CC(C)C(=O)C=CC(C)=CC1COC1OC(C)C(O)C(OC)C1OC` (stereo not shown) [Compound 43, 20-DH-DO-20-N-Phthalimidodesmycosin]?
MIC ([2]; Staphylococcus epidermidis EPI1, agar dilution): 0.12 µg/mL (≈ 0.133 µM); MIC ([3]; Staphylococcus aureus X400, methicillin-resistant strain, agar dilution): 0.5 µg/mL (≈ 0.554 µM); MIC (Mycoplasma hyorhinis; Mycoplasma hyorhinis, broth-dilution microtiter): 50 µg/mL (≈ 55.4 µM); MIC [4]: 25 µg/mL (≈ 27.7 µM); MIC (Mycoplasma hyopneumoniae; Mycoplasma hyopneumoniae, broth-dilution microtiter): 12.5 µg/mL (≈ 13.8 µM); MIC ([5]; Staphylococcus aureus S13E, agar dilution): 0.25 µg/mL (≈ 0.277 µM); MIC (Mycoplasma gallisepticum; Mycoplasma gallisepticum, broth-dilution microtiter): 0.78 µg/mL (≈ 0.864 µM); MIC [6]: 2 µg/mL (≈ 2.21 µM); MIC (Staphylococcus aureus; broth-dilution microtiter): 0.78 µg/mL (≈ 0.864 µM); MIC ([7]; Streptococcus pyogenes C203, agar dilution): 0.25 µg/mL (≈ 0.277 µM); MIC ([8]; agar dilution): 32 µg/mL (≈ 35.4 µM); MIC ([9]; Staphylococcus epidermidis EPI2, agar dilution): 0.25 µg/mL (≈ 0.277 µM); MIC (Streptococcus bovis 80; Streptococcus bovis 80, broth-dilution microtiter): 6.25 µg/mL (≈ 6.92 µM); Number of Deaths/Number Treated (Pasteurella multocida): 10/10; MIC (Mycoplasma synoviae; Mycoplasma synoviae, broth-dilution microtiter): 0.78 µg/mL (≈ 0.864 µM); MIC ([10]; Staphylococcus aureus V41, penicillin-resistant strain, agar dilution): 0.12 µg/mL (≈ 0.133 µM); MIC ([11]; agar dilution): 32 µg/mL (≈ 35.4 µM); MIC ([12]; Staphylococcus aureus X1.1, agar dilution): 0.12 µg/mL (≈ 0.133 µM); MIC (Streptococcus Group 9960; Streptococcus Group 9960, agar dilution): 4 µg/mL (≈ 4.43 µM); MIC [13]: 25 µg/mL (≈ 27.7 µM); ED50, Oral ([14]; mice, oral, doses given 1 and 4 hours post-infection): 16 mg/kg × 2; ED50, Subcutaneous ([14]; mice, subcutaneous, doses given 1 and 4 hours post-infection): 1.6 mg/kg × 2; MIC [15]: 12.5 µg/mL (≈ 13.8 µM)
